Data as given in US20140243302A1, “BRIDGED BICYCLIC COMPOUNDS FOR THE TREATMENT OF BACTERIAL INFECTIONS” (priority 2011, published 2014).
≈ marks a conversion by molar mass, not a printed value.

System: Staphylococcus aureus Smith
Assay: MIC assay, modified agar dilution (CLSI), S. aureus Smith
Format: cell-based
Details: Staphylococcus aureus, agar dilution, 35° C., 16-20 hr; lowest concentration that completely inhibited growth; read-out: S_aureus_Smith_WT_MIC
Description: The potency of antibacterial agents was measured using the Minimal Inhibitory Concentration (MIC) assay. The assay measures the ability of test agents to inhibit the growth of bacteria on agar-containing medium.
The bacterial test strains used were exemplified by Staphylococcus aureus Smith, Enterococcus faecium A2373, Streptococcus pneumoniae IID554, and Escherichia coli ATCC 25922. All strains were maintained as frozen stocks held at −80° C. in skim milk. Other bacterial test strains are well known to those skilled in the art and can be used for testing.
Mueller Hinton Agar (MHA BBL; Becton Dickinson and Company, Sparks, Md.) was used as the medium. MHA was supplemented with 5% defibrinated horse blood (DHB; Nippon Biotest Laboratories inc.) to support the growth of S. pneumoniae and E. faecium.
MIC values were determined using a modified agar dilution procedure described by the Clinical and Laboratory Standards Institute (CLSI; Methods for Dilution Antimicrobial Susceptibility Tests for Bacteria That Grow Aerobically; Approved Standard—Eighth Edition. CLSI document M07-A8 [ISBN 1-56238-689-1]. Clinical and Laboratory Standards Institute, 940 West Valley Road, Suite 1400, Wayne, Pa. 19087-1898 USA, 2009).
Stock solutions (6.4 mgmL) of test compounds were prepared in 100% ultrapure dimethyl sulfoxide (DMSO; source) on the day of the assay. Subsequent serial dilutions were performed to generate solutions with concentrations ranging from 6.4 to 0.0002 mgmL in 100% DMSO.
Agar medium containing test compound was prepared by adding the dilutions of antimicrobial solution to molten MHA at a temperature of 45-50° C. The agar and antimicrobial solution were mixed thoroughly, poured into petri dishes, and allowed to solidify at room temperature. The final concentration of test compounds in the MHA medium ranged from 128 to 0.001 μg/mL with two-fold dilutions. MHA plates lacking antibacterial compound were used for growth controls.
Prior to susceptibility testing, the bacterial isolates were removed from frozen storage, thawed at room temperature, sub-cultured to MHA medium and incubated overnight at 35° C. S. pneumoniae and E. faecium were subcultured on MHA supplemented with 5% DHB at 35° C. with […]. Colonies from each plate were suspended in normal saline. This suspension was adjusted to the turbidity of a 0.5 McFarland standard, 1-2×10^8 colony forming units (CFU) per mL, and diluted 100-fold to 1-2×10^6 CFUmL.
Suspensions of bacterial cultures were applied to the surface of MHA plates containing test compound as well as to a growth control plate lacking test compound using an inoculum-replicating device with 4 mm pins. The replicating device applied 5 uL of the bacterial suspension such that each spot contained approx. 1×10^4 CFU. Plates were dried for about 40 min and incubated at 35° C. for 16-20 hr prior to scoring.

Row | Compound | MIC [µg/mL]
1 | COC(=O)[C@H]1C[C@H]1COc1ccc2ncc(F)c(CCC34CCC(NCc5ccc6c(n5)NC(=O)CO6)(CC3)CO4)c2n1 (single isomer, unassigned; enantiomer b) [Example 228, Methyl 2-((7-Fluoro-8-(2-(4-((3-oxo-3,4-dihydro-2H-pyrido[3,2-b][1,4]oxazin-6-yl)methylamino)-2-oxabicyclo[2.2.2]octan-1-yl)ethyl)-1,5-naphthyridin-2-yloxy)methyl)cyclopropanecarboxylate (Enantiomer B)] | 0.25 (≈ 0.423 µM)
2 | COc1ccc2ncc(N)c(CCC34CCC(NCc5ccc6c(n5)NC(=O)CO6)(CC3)CC4)c2n1.Cl [Example 3, 6-((4-(2-(3-Amino-6-methoxy-1,5-naphthyridin-4-yl)ethyl)bicyclo[2.2.2]octan-1-ylamino)methyl)-2H-pyrido[3,2-b][1,4]oxazin-3(4H)-one Hydrochloride] | 0.25
3 | COc1ccc2ncc(F)c(CCC34CCC(NCc5ccc6c(n5)NC(=O)CO6)(CC3)CC4)c2n1.Cl [Example 4, 6-((4-(2-(3-Fluoro-6-methoxy-1,5-naphthyridin-4-yl)ethyl)bicyclo[2.2.2]octan-1-ylamino)methyl)-2H-pyrido[3,2-b][1,4]oxazin-3(4H)-one Hydrochloride] | 0.016
4 | COc1ccc2ncc(Cl)c(C#CC34CCC(NCc5ccc6c(n5)NC(=O)CO6)(CC3)CC4)c2n1.Cl [Example 6, 6-((4-((3-Chloro-6-methoxy-1,5-naphthyridin-4-yl)ethynyl)bicyclo[2.2.2]octan-1-ylamino)methyl)-2H-pyrido[3,2-b][1,4]oxazin-3(4H)-one Hydrochloride] | 0.031
5 | COc1ccc2ncc(Cl)c(/C=C\C34CCC(NCc5ccc6c(n5)NC(=O)CO6)(CC3)CC4)c2n1 [Example 8, (Z)-6-((4-(2-(3-Chloro-6-methoxy-1,5-naphthyridin-4-yl)vinyl)bicyclo[2.2.2]octan-1-ylamino)methyl)-2H-pyrido[3,2-b][1,4]oxazin-3(4H)-one] | 0.5 (≈ 0.988 µM)
6 | COc1ccc2ncc(Cl)c(/C=C/C34CCC(NCc5ccc6c(n5)NC(=O)CO6)(CC3)CC4)c2n1.Cl [Example 10, (E)-6-((4-(2-(3-Chloro-6-methoxy-1,5-naphthyridin-4-yl)vinyl)bicyclo[2.2.2]octan-1-ylamino)methyl)-2H-pyrido[3,2-b][1,4]oxazin-3(4H)-one Hydrochloride] | 0.016
7 | COc1ccc2ncc(F)c(CCC34CCC(NCc5ccc6c(n5)NC(=O)CO6)(CC3)C4)c2n1 [Example 12, 6-((4-(2-(3-Fluoro-6-methoxy-1,5-naphthyridin-4-yl)ethyl)bicyclo[2.2.1]heptan-1-ylamino)methyl)-2H-pyrido[3,2-b][1,4]oxazin-3(4H)-one] | 0.25 (≈ 0.524 µM)
8 | COc1ccc2ncc(Cl)c(OCC34CCC(NCc5ccc6c(n5)NC(=O)CO6)(CC3)CC4)c2n1 [Example 15, 6-((4-((3-Chloro-6-methoxy-1,5-naphthyridin-4-yloxy)methyl)bicyclo[2.2.2]octan-1-ylamino)methyl)-2H-pyrido[3,2-b][1,4]oxazin-3(4H)-one] | 0.031 (≈ 0.0608 µM)
9 | COc1ccc2ncc(Cl)c(CCC34CCC(NCc5ccc6c(n5)NC(=O)CO6)(CC3)CO4)c2n1.Cl [Example 16, 6-((1-(2-(3-Chloro-6-methoxy-1,5-naphthyridin-4-yl)ethyl)-2-oxabicyclo[2.2.2]octan-4-ylamino)methyl)-2H-pyrido[3,2-b][1,4]oxazin-3(4H)-one Hydrochloride] | 0.016
10 | COc1ccc2nccc(CCC34CCC(NCc5ccc6c(n5)NC(=O)CO6)(CC3)CO4)c2n1.Cl [Example 17, 6-((1-(2-(6-Methoxy-1,5-naphthyridin-4-yl)ethyl)-2-oxabicyclo[2.2.2]octan-4-ylamino)methyl)-2H-pyrido[3,2-b][1,4]oxazin-3(4H)-one Hydrochloride] | 0.031
11 | COc1ccc2ncc(F)c(/C=C/C34CCC(NCc5ccc6c(n5)NC(=O)CO6)(CC3)CO4)c2n1 [Example 19, (E)-6-((1-(2-(3-Fluoro-6-methoxy-1,5-naphthyridin-4-yl)vinyl)-2-oxabicyclo[2.2.2]octan-4-ylamino)methyl)-2H-pyrido[3,2-b][1,4]oxazin-3(4H)-one] | 0.008 (≈ 0.0163 µM)
12 | COc1ccc2ncc(F)c(CC(OC)C34CCC(NCc5ccc6c(n5)NC(=O)CO6)(CC3)CO4)c2n1.Cl (centres unmarked) [Example 22, 6-((1-(2-(3-Fluoro-6-methoxy-1,5-naphthyridin-4-yl)-1-methoxyethyl)-2-oxabicyclo[2.2.2]octan-4-ylamino)methyl)-2H-pyrido[3,2-b][1,4]oxazin-3(4H)-one Hydrochloride] | 0.25
13 | COc1ccc2ncc(F)c(CC(=O)C34CCC(NCc5ccc6c(n5)NC(=O)CO6)(CC3)CO4)c2n1 [Example 23, 6-((1-(2-(3-Fluoro-6-methoxy-1,5-naphthyridin-4-yl)acetyl)-2-oxabicyclo[2.2.2]octan-4-ylamino)methyl)-2H-pyrido[3,2-b][1,4]oxazin-3(4H)-one] | 0.125 (≈ 0.246 µM)
14 | O=C1COc2ccc(CNC34CCC(CCc5c(F)cnc6ccc(N7CCOCC7)nc56)(CC3)OC4)nc2N1 [Example 28, 6-((1-(2-(3-Fluoro-6-morpholino-1,5-naphthyridin-4-yl)ethyl)-2-oxabicyclo[2.2.2]octan-4-ylamino)methyl)-2H-pyrido[3,2-b][1,4]oxazin-3(4H)-one] | 0.5 (≈ 0.911 µM)
15 | Nc1ccc2ncc(F)c(CCC34CCC(NCc5ccc6c(n5)NC(=O)CO6)(CC3)CO4)c2n1 [Example 30, 6-((1-(2-(6-Amino-3-fluoro-1,5-naphthyridin-4-yl)ethyl)-2-oxabicyclo[2.2.2]octan-4-ylamino)methyl)-2H-pyrido[3,2-b][1,4]oxazin-3(4H)-one] | 2 (≈ 4.18 µM)

Continued, values first:

Row | MIC [µg/mL] | Compound
16 | 0.031 | COc1ccc2nccc(CCC34CCC(NCc5ccc6c(n5)NC(=O)CO6)(CC3)CC4)c2n1.Cl [Example 1, 6-((4-(2-(6-Methoxy-1,5-naphthyridin-4-yl)ethyl)bicyclo[2.2.2]octan-1-ylamino)methyl)-2H-pyrido[3,2-b][1,4]oxazin-3(4H)-one Hydrochloride]
17 | 0.125 (≈ 0.229 µM) | CCOC(=O)c1cnc2ccc(OC)nc2c1CCC12CCC(NCc3ccc4c(n3)NC(=O)CO4)(CC1)CC2 [Example 2, Ethyl 6-Methoxy-4-(2-(4-((3-oxo-3,4-dihydro-2H-pyrido[3,2-b][1,4]oxazin-6-yl)methylamino)bicyclo[2.2.2]octan-1-yl)ethyl)-1,5-naphthyridine-3-carboxylate]
18 | 0.031 | COc1ccc2ncc(Cl)c(CCC34CCC(NCc5ccc6c(n5)NC(=O)CO6)(CC3)CC4)c2n1.Cl [Example 5, 6-((4-(2-(3-Chloro-6-methoxy-1,5-naphthyridin-4-yl)ethyl)bicyclo[2.2.2]octan-1-ylamino)methyl)-2H-pyrido[3,2-b][1,4]oxazin-3(4H)-one Hydrochloride]
19 | 0.5 (≈ 1.02 µM) | O=C1COc2ccc(CNC34CCC(/C=C\c5c(Cl)cnc6ccc(O)nc56)(CC3)CC4)nc2N1 [Example 7, (Z)-6-((4-(2-(3-Chloro-6-hydroxy-1,5-naphthyridin-4-yl)vinyl)bicyclo[2.2.2]octan-1-ylamino)methyl)-2H-pyrido[3,2-b][1,4]oxazin-3(4H)-one]
20 | 0.125 (≈ 0.253 µM) | O=C1COc2ccc(CNC34CCC(CCc5c(Cl)cnc6ccc(O)nc56)(CC3)CC4)nc2N1 [Example 9, 6-((4-(2-(3-Chloro-6-hydroxy-1,5-naphthyridin-4-yl)ethyl)bicyclo[2.2.2]octan-1-ylamino)methyl)-2H-pyrido[3,2-b][1,4]oxazin-3(4H)-one]
21 | 2 (≈ 4.32 µM) | Cc1cccc2sc(C(=O)C34CCC(NCc5ccc6c(n5)NC(=O)CO6)(CC3)CC4)nc12 [Example 11, 6-((4-(4-Methylbenzo[d]thiazole-2-carbonyl)bicyclo[2.2.2]octan-1-ylamino)methyl)-2H-pyrido[3,2-b][1,4]oxazin-3(4H)-one]
22 | 4 (≈ 7.94 µM) | COc1ccc2ncc(F)c(CCC34CCC(NCc5nc6ccccc6n(C)c5=O)(CC3)CO4)c2n1 [Example 24, 3-((1-(2-(3-Fluoro-6-methoxy-1,5-naphthyridin-4-yl)ethyl)-2-oxabicyclo[2.2.2]octan-4-ylamino)methyl)-1-methylquinoxalin-2(1H)-one]
23 | 0.25 (≈ 0.494 µM) | CN(C)c1ccc2ncc(F)c(CCC34CCC(NCc5ccc6c(n5)NC(=O)CO6)(CC3)CO4)c2n1 [Example 29, 6-((1-(2-(6-(Dimethylamino)-3-fluoro-1,5-naphthyridin-4-yl)ethyl)-2-oxabicyclo[2.2.2]octan-4-ylamino)methyl)-2H-pyrido[3,2-b][1,4]oxazin-3(4H)-one]
